From US20170035863A1 (UNIVERSITY OF LEEDS, priority 2014, published 2017)

What was measured:
[1] = tested on: murine tail bleeding model; assay: Murine tail bleeding time; format: in vivo, C57BL/6 male mice
Excerpt: The same animals employed for anticoagulant efficacy were subjected to tail bleeding immediately following the end of the efficacy experiments. Tails were cut with a scalpel at 2 mm diameter using a home-made device for measuring tail diameter. The tails were immediately suspended into lml warmed saline and the time taken to cessation of bleeding monitored (panel A). The collected saline/blood mix at the end of the experiments were frozen and subjected to haemoglobin determination (panel B).
The same animals employed for anticoagulant efficacy were subjected to tail bleeding immediately following the end of the efficacy experiments. Tails were cut with a scalpel at 2 mm diameter using a home-made device for measuring tail diameter. The tails were immediately suspended into 1 ml warmed saline and the time taken to cessation of bleeding monitored.

thrombin = thrombin (Homo sapiens, UniProt P00734); assay: Thrombin activity, chromogenic substrate S-2238 (IC50); format: biochemical
Method: Thrombin activity was measured using a chromogenic substrate S-2238 (Quadratec). […] Kinetic readings at 405 nm were monitored every 12 seconds for a total duration of 3 hours at 37° C. Gradients of initial rates were determined and employed to calculate IC50 values using Grafit software.

[2] = tested on: human normal pool platelet poor plasma; assay: Activated Partial Thromboplastin Time (aPTT) clotting assay; format: biochemical; details: for Mean aPTT: platelet poor plasma, mean ± SEM
Method: The activated Partial Thromboplastin Time (aPTT) employed was the PTT Automate 5 reagent kit from Stago. The coagulometer (Start 4, Diagnostica Stago, Asnieres sur Seine Cedex, France) was preheated to 37° C. prior to starting any measurements. A sample of human normal pool platelet poor plasma (n=22) was defrosted at 37° C. from −80° C. […] Then 48.5 μL of PTT automate was added to the cuvette and left to incubate for 180 seconds at 37° C. in the coagulometer, after which 50 μL of 25 mM calcium chloride was immediately added to initiate clotting. At the end of the test, the time clotting times were recorded.
This method is known to the person skilled in the art.

**Q.** What does the source list for `CC[C@H](C)[C@H](NC(=O)[C@H](C)NC(=O)[C@H](CCC(=O)O)NC(=O)[C@H](Cc1ccccc1)NC(=O)[C@H](CC(=O)O)NC(=O)[C@H](Cc1ccccc1)NC(=O)[C@@H]1CCCN1C(=O)[C@@H]1CCCN1C(=O)[C@H](C)NC(=O)[C@@H](NC(=O)[C@H](CCCCN)NC(=O)[C@H](Cc1c[nH]cn1)NC(=O)[C@H](CCSC)NC(=O)[C@H](CCCNC(=N)N)NC(=O)[C@@H]1CCCN1C(=O)[C@H](CCC(=O)O)NC(=O)[C@H](C)NC(=O)[C@@H](NC(=O)[C@@H](N)CC(=O)O)C(C)C)[C@@H](C)O)C(=O)N1CCC[C@H]1C(=O)N[C@@H](CCC(=O)O)C(=O)N[C@@H](CCC(=O)O)C(=O)N[C@@H](Cc1ccc(O)cc1)C(=O)N[C@@H](Cc1ccc(OS(=O)(=O)O)cc1)C(=O)N[C@@H](CC(C)C)C(=O)O` [SYM-3491-SO3]?
**A.** prolongation of bleeding time ([1]; 20 mg/kg, at the end of the experiment): ~2 fold; risk of bleeding ([1]; at doses achieving 50% inhibition of fibrin clot formation): increases risk of bleeding; prolongation of bleeding time ([1]; at the dose required to achieve at least 50% inhibition of fibrin clot formation): ~2 fold; IC50 (thrombin): 172 ± 6.5 nM; Mean aPTT ([2]; 0.11 nM, 3 min incubation): 32.03 ± 0.07 s; Mean aPTT ([2]; 0.44 nM): 32.07 ± 0.03 s; Mean aPTT ([2]; 0.88 nM): 31.83 ± 0.03 s; Mean aPTT ([2]; 1.75 nM): 32.20 ± 0.15 s; Mean aPTT ([2]; 3.50 nM): 32.33 ± 0.07 s; Mean aPTT ([2]; 7.00 nM): 33.27 ± 0.27 s; Mean aPTT ([2]; 14.00 nM): 35.33 ± 0.33 s; Mean aPTT ([2]; 28.00 nM): 38.23 ± 0.48 s; Mean aPTT ([2]; 56.00 nM): 44.17 ± 0.43 s; Mean aPTT ([2]; 112.00 nM): 49.87 ± 0.20 s; Mean aPTT ([2]; 224.00 nM): 60.33 ± 0.17 s; Mean aPTT ([2]; 448.00 nM): 70.97 ± 0.69 s; potency in aPTT, comparison ([2]; in plasma): slightly less than variegin

**Q.** With bivalirudin [reference compound] as the molecule, how does the “Mean aPTT” value ([2]; 0.11 nM, 3 min incubation) read?
**A.** 32.03 ± 0.35 s

**Q.** And the “Mean aPTT” value ([2]; 0.44 nM)?
**A.** 31.07 ± 0.09 s

**Q.** And the “Mean aPTT” value ([2]; 0.88 nM)?
**A.** 31.20 ± 0.06 s

**Q.** And the “Mean aPTT” value ([2]; 1.75 nM)?
**A.** 31.47 ± 0.37 s

**Q.** And the “Mean aPTT” value ([2]; 3.50 nM)?
**A.** 32.43 ± 0.13 s

**Q.** What about the “Mean aPTT” value ([2]; 7.00 nM) of the same molecule?
**A.** 36.30 ± 0.20 s

**Q.** And the “Mean aPTT” value ([2]; 14.00 nM)?
**A.** 40.27 ± 0.60 s

**Q.** What about the “Mean aPTT” value ([2]; 28.00 nM) of the same molecule?
**A.** 46.13 ± 1.25 s

**Q.** What about the “Mean aPTT” value ([2]; 56.00 nM) of the same molecule?
**A.** 53.97 ± 0.26 s

**Q.** And the “Mean aPTT” value ([2]; 112.00 nM)?
**A.** 63.43 ± 2.32 s

**Q.** And the “Mean aPTT” value ([2]; 224.00 nM)?
**A.** 79.50 ± 0.75 s

**Q.** And the “Mean aPTT” value ([2]; 448.00 nM)?
**A.** 89.77 ± 3.99 s
